Data reported in patent US20230036060A1, “DUAL-CONTROLLED DRUG AND PHOTOACTIVATABLE SYSTEM FOR SPATIOTEMPORAL CONTROL OF CELL THERAPY” (THE REGENTS OF THE UNIVERSITY OF CALIFORNIA, priority 2019, published 2023).

How the values were obtained:
ERT2-mCherry = target: T1, ERT2-mCherry (Homo sapiens, UniProt P03372, G400V/L544A/M543A); assay: Time-lapse fluorescence microscopy of 4-OHT-induced nuclear translocation of ERT2-mCherry in HEK293T cells; format: cell-based; settings: 4-OHT 500 nM
T1 construct: expressed in transfected cells; host or cells: HEK293T
T1 sequence (P03372 311-547 G400V/M543A/L544A limits assumed): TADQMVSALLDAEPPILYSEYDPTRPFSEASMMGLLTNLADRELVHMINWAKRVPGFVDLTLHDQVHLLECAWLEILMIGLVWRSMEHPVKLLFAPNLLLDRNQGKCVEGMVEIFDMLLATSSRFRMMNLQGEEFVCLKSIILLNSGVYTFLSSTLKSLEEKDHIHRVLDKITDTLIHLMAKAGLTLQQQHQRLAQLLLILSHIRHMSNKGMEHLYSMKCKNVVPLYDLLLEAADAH
Protocol: FIG. 2E illustrates representative time-lapse fluorescence microscopy images of HEK293T cells transiently expressing ERT2-mCherry before and after the addition of nuclear-localizing 4-OHT (500 nM) (imaged every 2 min, 100× mag., scale bar=10 μm, n=6 independently measured cells).
Tamoxifen-induced nuclear import translocation dynamics in HEK293T cells were further characterized using an ERT2-mCherry fusion protein (Fig. S1F). Using time-lapse fluorescence microscopy, we discovered that nuclear translocation driven by 4-OHT (500 nM) occurred on the order of hours. ERT2-mCherry protein was only clearly nuclear-localized (with a nuclear-to-cytosolic mean fluorescence intensity ratio≥2) after approximately three hours (FIG. 2E), highlighting an effective time window for blue light stimulation to drive robust Cre-loxP recombination in ERT2-based photoactivatable construct designs.

[1] = cited from earlier work

| Molecule | time to significant 4-OHT-induced nuclear translocation of ERT2-mCh fusion protein (ERT2-mCherry) | nuclear-to-cytosolic mean fluorescence intensity ratio of ERT2-mCherry (ERT2-mCherry; after approximately three hours) | terminal elimination half-life (plasma concentrations) [1] |
| --- | --- | --- | --- |
| 4-hydroxytamoxifen [4-OHT] | approximately 3 h | ≥ 2 | – |
| CC/C(=C(\c1ccccc1)c1ccc(OCCN(C)C)cc1)c1ccccc1 [tamoxifen] | – | – | 5 to 7 h |
